Data set [1] relates to Staphylococcus aureus. In words: Antibacterial activity against Staphylococcus aureus assessed as inhibition of bacterial growth. The format is functional.
The test system of the next data set is Bacillus anthracis. In words: Antibacterial activity against Bacillus anthracis assessed as inhibition of bacterial growth. The format is functional.
Data set [2] deals with Klebsiella pneumoniae. In words: Antibacterial activity against Klebsiella pneumoniae assessed as inhibition of bacterial growth. In kind it is functional.
Data set [3] deals with Staphylococcus epidermidis. In words: Antibacterial activity against Staphylococcus epidermidis ATCC 12228 assessed as reduction in microbial growth measured for 16 to 20 hrs by microdilution assay. In kind it is functional. To be noted: time 16-20 hrs.
Data set [4] relates to Staphylococcus aureus. In words: Additive antibacterial activity against methicillin-resistant Staphylococcus aureus assessed as fractional inhibitory concentration index in presence of tetracycline by checker board method. In kind it is functional.
For data set [5], the system named is Staphylococcus aureus. Nature of the data set: Anti-biofilm activity in Staphylococcus aureus ATCC 6538 assessed as inhibition of biofilm formation at 16 uM measured for 24 hrs by MTT assay. Also noted: scale not given: the % may be the effect or the level left. The format is functional.
Data set [6] relates to Staphylococcus aureus. In words: Induction of cell membrane permeability in Staphylococcus aureus ATCC 6538. In kind it is functional, organism-based.
In another data set the test system is Escherichia coli. In words: Antibacterial activity against Escherichia coli ATCC 25922 assessed as inhibition of bacterial growth measured for 16 to 20 hrs by microdilution assay. The following applies: time 16-20 hrs. In kind it is functional.
Data set [7] is described as follows: Metabolic stability in human liver microsome assessed as intrinsic clearance at 5 uM incubated for 1 hr in presence of NADPH regenerating system and GSH by LC-UV analysis. The format is ADME. The following applies: liver microsomes, read-out: CLH.
The subject of data set [8] is Staphylococcus aureus. In words: Antibacterial activity against Staphylococcus aureus ATCC 29213 assessed as reduction in microbial growth measured for 16 to 20 hrs by microdilution assay. The format is functional. To be noted: time 16-20 hrs.
Data set [9] deals with Osteoblast. Nature of the data set: Cytotoxicity against human Osteoblast cells assessed as reduction in cell viability measured at 128 uM measured for 24 hrs by MTT assay. In kind it is toxicity, cell-based.
The next data set deals with HaCaT. Nature of the data set: Cytotoxicity against human HaCaT cells assessed as reduction in cell viability measured at 64 to 128 uM measured for 24 hrs by MTT assay. The format is toxicity, cell-based. To be noted: dose 64-128 µM.
The nature of data set [10]: Metabolic stability in human liver microsome assessed as parent compound remaining at 50 uM incubated for 1 hr in presence of NADPH regenerating system and GSH by LC-UV analysis. The format is ADME. The following applies: liver microsomes, read-out: Stability.
For the next data set, the system named is Pseudomonas aeruginosa. In words: Antibacterial activity against Pseudomonas aeruginosa ATCC 10145 assessed as inhibition of bacterial growth measured for 16 to 20 hrs by microdilution assay. In kind it is functional. To be noted: time 16-20 hrs.
Data set [11] can be described thus: Metabolic stability in human liver microsome assessed as half life at 5 uM incubated for 1 hr in presence of NADPH regenerating system and GSH by LC-UV analysis. To be noted: liver microsomes. The format is ADME.
For data set [12], the system named is Staphylococcus aureus. Nature of the data set: Bactericidal activity against methicillin-resistant Staphylococcus aureus ATCC 43300 measured for 24 hrs by time kill assay. In kind it is functional, organism-based.
Data set [13] has as its system Staphylococcus aureus. In words: Additive antibacterial activity against methicillin-resistant Staphylococcus aureus assessed as fractional inhibitory concentration index in presence of ciprofloxacin by checker board method. The format is functional.
The test system of data set [14] is Klebsiella pneumoniae. Nature of the data set: Antibacterial activity against Klebsiella pneumoniae ATCC 700603 assessed as inhibition of bacterial growth measured for 16 to 20 hrs by microdilution assay. The format is functional. The following applies: time 16-20 hrs.
For data set [15], the system named is Staphylococcus aureus. Nature of the data set: Bactericidal activity against methicillin-resistant Staphylococcus aureus ATCC 43300 incubated for 24 hrs by time kill assay. In kind it is functional.
The subject of data set [16] is Osteoblast. In words: Cytotoxicity against human Osteoblast cells assessed as reduction in cell viability measured at 64 to 128 uM measured for 24 hrs by MTT assay. The format is toxicity, cell-based. The following applies: dose 64-128 µM.
Data set [17] relates to Staphylococcus aureus. Nature of the data set: Antibacterial activity against Staphylococcus aureus ATCC 25923 assessed as reduction in microbial growth measured for 16 to 20 hrs by microdilution assay. The format is functional. The following applies: time 16-20 hrs.
In data set [18] the test system is Staphylococcus aureus. In words: Anti-biofilm activity in Staphylococcus aureus ATCC 6538 assessed as inhibition of biofilm formation upto 128 uM measured for 24 hrs by MTT assay. The format is functional, organism-based.
The subject of data set [19] is Staphylococcus aureus. Nature of the data set: Antibacterial activity against methicillin-resistant Staphylococcus aureus ATCC 33592 assessed as reduction in microbial growth measured for 16 to 20 hrs by microdilution assay. To be noted: time 16-20 hrs. In kind it is functional.
Data set [20] is described as follows: Metabolic stability in rat liver microsome assessed as parent compound remaining at 50 uM incubated for 1 hr in presence of NADPH regenerating system and GSH by LC-UV analysis. In kind it is ADME. The following applies: liver microsomes, read-out: Stability.
The nature of data set [21]: Metabolic stability in human plasma assessed as parent compound remaining at 50 uM incubated for 60 mins by LC-UV analysis. In kind it is ADME, cell-free. To be noted: read-out: Stability.
In data set [22] the test system is Staphylococcus aureus. In words: Antibacterial activity against methicillin-resistant Staphylococcus aureus ATCC 43300 assessed as reduction in microbial growth by microdilution assay. The format is functional.
Data set [23] relates to Staphylococcus aureus. Nature of the data set: Antibacterial activity against methicillin-resistant Staphylococcus aureus ATCC 43300 assessed as reduction in microbial growth measured for 16 to 20 hrs by microdilution assay. In kind it is functional. The following applies: time 16-20 hrs.
Data set [24] relates to Staphylococcus aureus. Nature of the data set: Anti-biofilm activity in Staphylococcus aureus ATCC 6538 assessed as inhibition of biofilm formation at 128 uM measured for 24 hrs by MTT assay. In kind it is functional. The arrangement: scale not given: the % may be the effect or the level left.
Data set [25] relates to Staphylococcus epidermidis. In words: Antibacterial activity against Staphylococcus epidermidis ATCC 35984 assessed as reduction in microbial growth measured for 16 to 20 hrs by microdilution assay. In kind it is functional. To be noted: time 16-20 hrs.
Data set [26] has as its system Staphylococcus epidermidis. In words: Antibacterial activity against Staphylococcus epidermidis ATCC 49134 assessed as reduction in microbial growth measured for 16 to 20 hrs by microdilution assay. In kind it is functional. The following applies: time 16-20 hrs.
Data set [27] concerns Staphylococcus aureus. Nature of the data set: Resistance development in methicillin-resistant Staphylococcus aureus ATCC 43300 assessed as fold increase in MIC after 10 passage. In kind it is functional.
Data set [28] concerns Staphylococcus aureus. In words: Antibacterial activity against Staphylococcus aureus ATCC 6538 assessed as reduction in cell surface hydrophobicity. In kind it is functional, organism-based.
Data set [29] concerns Staphylococcus aureus. In words: Antibacterial activity against Staphylococcus aureus ATCC 6538 assessed as reduction in microbial growth measured for 16 to 20 hrs by microdilution assay. In kind it is functional. The following applies: time 16-20 hrs.

SMILES strings stand for the structures. Values after ≈ are worked out from the molar mass of the structure shown. Active and inactive are the calls of the source. The rule behind the calls is not given here.

On to `[C-]#[N+]/C(Cl)=C/C1(OC(C)=O)C(=O)Nc2ccccc21` (stereo not drawn), for which the MIC in the data set on Staphylococcus aureus [1] was found to be 0.18 µM (≈ 0.0498 µg/mL); in the data set with Bacillus anthracis it was 0.7 µM (≈ 0.194 µg/mL); with Klebsiella pneumoniae [2] it was 0.7 µM (≈ 0.194 µg/mL).
`[C-]#[N+]c1ccc(NC(=O)Cc2cccc(Cl)c2)cc1`: the MIC in [3] was 0.5 µM; in the data set with Escherichia coli, at least 64 µM; with Staphylococcus aureus [8] it was 8 µM; in the data set on Pseudomonas aeruginosa, at least 64 µM; in the data set with Klebsiella pneumoniae [14], at least 64 µM; in the data set with Staphylococcus aureus [17] it was 2 µM. For the same compound, the MIC is 4 µM in the data set on Staphylococcus aureus [19]; 4 µM with Staphylococcus aureus [22]; 4 µM in the data set on Staphylococcus aureus [23]; 0.25 µM in data set [25]; 0.25 µM in [26]; 8 µM with Staphylococcus aureus [29]. For the same compound, the “fractional inhibitory concentration index (FICI)” value with Staphylococcus aureus [4] and in the data set on Staphylococcus aureus [13] was 0.75 throughout. Also, the Activity is given as 10% in the data set with Staphylococcus aureus [5]; above 70% with Osteoblast [9]; “Non-Toxic” with HaCaT; “>=99.9%” in the data set with Staphylococcus aureus [15]; “Non-Toxic” in the data set on Osteoblast [16]; 94% in the data set with Staphylococcus aureus [24]. For the same compound, the outcome in the data set on Staphylococcus aureus [6] and with Staphylococcus aureus [12] was Active. The microsomal CLint at 5 µM in data set [7] is 24.4 µL/min/mg. The results for the remaining at 1 h, 50 µM in data set [10], in data set [20] and in [21] were 82%, 53% and above 99%, respectively. Further, the half-life at 5 µM in data set [11] is 26.2 min. The result in the data set with Staphylococcus aureus [18] and with Staphylococcus aureus [28] was inactive. In addition, in the data set with Staphylococcus aureus [27], the “fold change (FC)” value is listed as above 4.
